Assay results reported in ChEMBL document CHEMBL1208724, “A new group of oxime carbamates as reversible inhibitors of fatty acid amide hydrolase” (Bioorg Med Chem Lett, 2010).

Molecular target: T1, Fatty-acid amide hydrolase 1 (Mus musculus, UniProt O08914)
T1 sequence (O08914 whole entry): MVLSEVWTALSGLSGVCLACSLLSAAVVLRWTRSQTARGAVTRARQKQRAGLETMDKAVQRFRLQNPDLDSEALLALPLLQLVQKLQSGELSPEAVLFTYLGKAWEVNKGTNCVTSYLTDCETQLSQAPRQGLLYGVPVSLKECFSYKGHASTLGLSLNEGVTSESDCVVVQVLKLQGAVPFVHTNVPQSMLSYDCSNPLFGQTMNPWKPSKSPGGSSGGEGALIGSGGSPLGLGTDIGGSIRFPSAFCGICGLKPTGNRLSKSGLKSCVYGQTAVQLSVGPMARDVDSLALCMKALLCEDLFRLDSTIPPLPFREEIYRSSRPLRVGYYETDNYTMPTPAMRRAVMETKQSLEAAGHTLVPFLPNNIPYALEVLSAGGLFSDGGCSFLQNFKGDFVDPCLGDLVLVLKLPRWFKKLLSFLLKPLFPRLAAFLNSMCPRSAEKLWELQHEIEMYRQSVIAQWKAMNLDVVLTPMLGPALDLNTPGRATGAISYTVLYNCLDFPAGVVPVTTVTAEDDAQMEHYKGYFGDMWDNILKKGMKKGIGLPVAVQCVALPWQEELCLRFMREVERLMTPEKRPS
Test: Inhibition of mouse brain FAAH assessed as conversion of [3H-ethanolamine]AEA to [3H]ethanolamine by scintillation counting

SMILES | IC50 [nM]
C/C(=N\OC(=O)Nc1ccccc1)c1cccc(-c2cccc(C(=O)NC(=O)Nc3ccccc3)c2)c1 | > 25000
C/C(=N\OC(=O)Nc1cccc2ccccc12)c1ccc(-c2cccs2)s1 | > 1000
C/C(=N\OC(=O)N(C)C)c1ccc(-c2ccccc2)cc1 | > 50000

Stronger by IC50, values ahead:

IC50 [nM] | SMILES
69 | C/C(=N\OC(=O)Nc1ccccc1)c1cccc(-c2ccccc2)c1
232 | C/C(=N\OC(=O)Nc1ccc2sccc2c1)c1cccc(-c2ccccc2)c1
